Measurements from PubChem BioAssay AID248 (DTP/NCI, 2004).
Where “and” joins values, the source holds several entries; their conditions need not be identical. Identical values can stand only once. Toxic doses and inconclusive results are not listed. No stated cut-off is given here; in the data, active means T/C of 150% or more; inactive means T/C below 125%.

Tested on: L1210 leukemia ip in BDF1 mice, survival T/C
Assay: NCI In Vivo Anticancer Drug Screen. Data for tumor model L1210 Leukemia (intraperitoneal) in B6D2F1 (BDF1) mice
Conditions: endpoint: mean survival time, higher = longer survival
Method in brief: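 Tumor was transplanted into mice, which were then dosed with test compound or vehicle alone. Survival was recorded for each group, and the treated figure was expressed relative to the control figure.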

[1] = dose: 100.0 mg/kg/injection, schedule: Q01DX009 (ip), vehicle: saline with Tween-80
[2] = dose: 200.0 mg/kg/injection, schedule: Q01DX009 (ip), vehicle: saline with Tween-80
[3] = dose: 5.0 mg/kg/injection, schedule: Q01DX001 (ip), vehicle: saline
[4] = dose: 10.0 mg/kg/injection, schedule: Q01DX001 (ip), vehicle: saline
[5] = dose: 100.0 mg/kg/injection, schedule: Q01DX009 (ip), vehicle: Klucel (hydroxypropylcellulose) (HPC)
[6] = dose: 200.0 mg/kg/injection, schedule: Q01DX009 (ip), vehicle: Klucel (hydroxypropylcellulose) (HPC)
[7] = dose: 400.0 mg/kg/injection, schedule: Q01DX009 (ip), vehicle: Klucel (hydroxypropylcellulose) (HPC)
[8] = dose: 100.0 mg/kg/injection, schedule: Q04DX003 (ip), vehicle: saline
[9] = dose: 200.0 mg/kg/injection, schedule: Q04DX003 (ip), vehicle: saline
[10] = dose: 100.0 mg/kg/injection, schedule: Q04DX003 (ip), vehicle: saline with Tween-80
[11] = dose: 200.0 mg/kg/injection, schedule: Q04DX003 (ip), vehicle: saline with Tween-80
[12] = dose: 100.0 mg/kg/injection, schedule: Q01DX001 (ip), vehicle: carboxymethylcellulose (CMC)
[13] = dose: 200.0 mg/kg/injection, schedule: Q01DX001 (ip), vehicle: carboxymethylcellulose (CMC)
[14] = dose: 400.0 mg/kg/injection, schedule: Q01DX001 (ip), vehicle: carboxymethylcellulose (CMC)

Measured: T/C

O=C(O)COc1ccccc1O
inactive: [1] 101 % of control | [2] 101 % of control

CCCCCCC(C)C1C(=O)NC(=S)NC1=O (configuration not stated)
inactive: dose: 75.0 mg/kg/injection, schedule: Q01DX001 (ip), vehicle: carboxymethylcellulose (CMC) 93 % of control | dose: 150.0 mg/kg/injection, schedule: Q01DX001 (ip), vehicle: carboxymethylcellulose (CMC) 91 % of control | dose: 300.0 mg/kg/injection, schedule: Q01DX001 (ip), vehicle: carboxymethylcellulose (CMC) 94 % of control

CC(C)N1CCc2cc3c(cc2C1)OCO3
inactive: [3] 101 % of control | [4] 101 % of control | dose: 20.0 mg/kg/injection, schedule: Q01DX001 (ip), vehicle: saline 110 % of control | dose: 40.0 mg/kg/injection, schedule: Q01DX001 (ip), vehicle: saline 104 % of control | dose: 80.0 mg/kg/injection, schedule: Q01DX001 (ip), vehicle: saline 101 % of control

CC(=O)N(C)c1ccc(NC(=O)Nc2cc(C(F)(F)F)ccc2Cl)cc1
inactive: [5] 96 % of control | [6] 94 % of control | [7] 94 % of control

CN(C)CC(=O)N/N=C\c1ccc([N+](=O)[O-])s1
inactive: [8] 91 % of control | [9] 93 % of control

O=C(N/N=C/c1ccc(Cl)cc1Cl)c1cccc([N+](=O)[O-])c1
inactive: [5] 100 % of control | [6] 100 % of control | [7] 94 % of control

O=C(O)c1ccccc1NCc1cc(=O)[nH]c(=O)[nH]1
inactive: [10] 101 % of control | [11] 98 % of control | dose: 400.0 mg/kg/injection, schedule: Q04DX003 (ip), vehicle: saline with Tween-80 95 % of control

CC(=O)Nc1ccc(NC(=O)Nc2ccc(C)cc2)cc1
inactive: dose: 50.0 mg/kg/injection, schedule: Q01DX009 (ip), vehicle: saline with Tween-80 90 % of control | [1] 90 % of control | [2] 90 % of control

N/C(=N\O)c1cccc(/C(N)=N/O)c1
inactive: dose: 100.0 mg/kg/injection, schedule: Q01DX001 (ip), vehicle: saline 103 % of control

O=C(O)c1cccc(C2CC2)c1
inactive: dose: 100.0 mg/kg/injection, schedule: Q01DX001 (ip), vehicle: other 95 % of control | dose: 100.0 mg/kg/injection, schedule: Q04DX003 (ip), vehicle: other 97 % of control | dose: 200.0 mg/kg/injection, schedule: Q01DX001 (ip), vehicle: other 97 % of control | dose: 200.0 mg/kg/injection, schedule: Q04DX003 (ip), vehicle: other 97 % of control | dose: 400.0 mg/kg/injection, schedule: Q01DX001 (ip), vehicle: other 98 % of control | dose: 400.0 mg/kg/injection, schedule: Q04DX003 (ip), vehicle: other 97 % of control

O=C1CC(Cc2n[nH]c3c2CCC3)CC(=O)N1
inactive: [12] 103 % of control | dose: 100.0 mg/kg/injection, schedule: Q04DX003 (ip), vehicle: carboxymethylcellulose (CMC) 97 % of control | [13] 97 % of control | dose: 200.0 mg/kg/injection, schedule: Q04DX003 (ip), vehicle: carboxymethylcellulose (CMC) 94 % of control | [14] 105 % of control | dose: 400.0 mg/kg/injection, schedule: Q04DX003 (ip), vehicle: carboxymethylcellulose (CMC) 101 % of control

NC1CC(C(=O)O)CCC1S (configuration not stated)
inactive: dose: 12.5 mg/kg/injection, schedule: Q04DX002 (ip), vehicle: saline 106 % of control | dose: 50.0 mg/kg/injection, schedule: Q04DX002 (ip), vehicle: other 94 % of control | dose: 50.0 mg/kg/injection, schedule: Q04DX002 (ip), vehicle: saline 87 % of control | dose: 100.0 mg/kg/injection, schedule: Q04DX002 (ip), vehicle: other 91 % of control

O=C(Nc1ccccc1)c1cccnc1
inactive: [12] 94 % of control | [13] 91 % of control | [14] 96 % of control

Clc1ccc([PH+](c2ccc(Cl)cc2)c2ccc(Cl)cc2)cc1.Clc1ccc([PH+](c2ccc(Cl)cc2)c2ccc(Cl)cc2)cc1.[Cl][Hg][Cl]
inactive: dose: 6.25 mg/kg/injection, schedule: Q01DX009 (ip), vehicle: Klucel (hydroxypropylcellulose) (HPC) 108 % of control | dose: 12.5 mg/kg/injection, schedule: Q01DX009 (ip), vehicle: Klucel (hydroxypropylcellulose) (HPC) 94 % of control | dose: 25.0 mg/kg/injection, schedule: Q01DX009 (ip), vehicle: Klucel (hydroxypropylcellulose) (HPC) 97 % of control | dose: 50.0 mg/kg/injection, schedule: Q01DX009 (ip), vehicle: Klucel (hydroxypropylcellulose) (HPC) 96 % of control

COc1ccccc1/C=N/N=C(/N)N[N+](=O)[O-]
inactive: dose: 100.0 mg/kg/injection, schedule: Q01DX001 (ip), vehicle: Klucel (hydroxypropylcellulose) (HPC) 102 % of control | dose: 200.0 mg/kg/injection, schedule: Q01DX001 (ip), vehicle: Klucel (hydroxypropylcellulose) (HPC) 101 % of control | dose: 400.0 mg/kg/injection, schedule: Q01DX001 (ip), vehicle: Klucel (hydroxypropylcellulose) (HPC) 98 % of control

O=C(Cc1ccccc1)Nc1ccc[n+](Cc2ccc(S(=O)(=O)F)cc2)c1
inactive: [8] 108 % of control and 122 % of control | [9] 113 % of control and 114 % of control

O=C1Nc2ccc(Cl)cc2C1=O
inactive: dose: 75.0 mg/kg/injection, schedule: Q01DX001 (ip), vehicle: saline 90 % of control | dose: 150.0 mg/kg/injection, schedule: Q01DX001 (ip), vehicle: saline 93 % of control | dose: 300.0 mg/kg/injection, schedule: Q01DX001 (ip), vehicle: saline 93 % of control

CN(C)C1CC1c1ccccc1 (configuration not stated)
inactive: dose: 6.25 mg/kg/injection, schedule: Q01DX009 (ip), vehicle: saline 106 % of control | dose: 12.5 mg/kg/injection, schedule: Q01DX009 (ip), vehicle: saline 95 % of control | dose: 25.0 mg/kg/injection, schedule: Q01DX009 (ip), vehicle: saline 95 % of control | dose: 25.0 mg/kg/injection, schedule: Q04DX003 (ip), vehicle: saline 100 % of control | dose: 50.0 mg/kg/injection, schedule: Q01DX009 (ip), vehicle: saline 106 % of control | dose: 50.0 mg/kg/injection, schedule: Q04DX003 (ip), vehicle: saline 100 % of control | [8] 100 % of control

CN(C)CCSC1=CC(=O)c2ccccc2C1=O
inactive: dose: 0.78 mg/kg/injection, schedule: Q01DX009 (ip), vehicle: water 91 % of control | dose: 1.56 mg/kg/injection, schedule: Q01DX009 (ip), vehicle: water 92 % of control

O=C(O)CCCC1CCCCC1.[Cu+2]
inactive: dose: 2.5 mg/kg/injection, schedule: Q01DX009 (ip), vehicle: Klucel (hydroxypropylcellulose) (HPC) 101 % of control | dose: 2.5 mg/kg/injection, schedule: Q04DX003 (ip), vehicle: Klucel (hydroxypropylcellulose) (HPC) 97 % of control | dose: 5.0 mg/kg/injection, schedule: Q01DX009 (ip), vehicle: Klucel (hydroxypropylcellulose) (HPC) 101 % of control | dose: 5.0 mg/kg/injection, schedule: Q04DX003 (ip), vehicle: Klucel (hydroxypropylcellulose) (HPC) 101 % of control | dose: 10.0 mg/kg/injection, schedule: Q01DX009 (ip), vehicle: Klucel (hydroxypropylcellulose) (HPC) 92 % of control | dose: 10.0 mg/kg/injection, schedule: Q04DX003 (ip), vehicle: Klucel (hydroxypropylcellulose) (HPC) 97 % of control

CCOC(=O)NC(C)(C)CN(CCO)C(=O)OCC
inactive: [5] 100 % of control | dose: 100.0 mg/kg/injection, schedule: Q04DX003 (ip), vehicle: Klucel (hydroxypropylcellulose) (HPC) 105 % of control | [6] 97 % of control | dose: 200.0 mg/kg/injection, schedule: Q04DX003 (ip), vehicle: Klucel (hydroxypropylcellulose) (HPC) 102 % of control | [7] 97 % of control | dose: 400.0 mg/kg/injection, schedule: Q04DX003 (ip), vehicle: Klucel (hydroxypropylcellulose) (HPC) 93 % of control

CC1c2nc(N)nc(N)c2CN1C(=O)c1ccccc1 (configuration not stated)
inactive: [12] 98 % of control | [13] 98 % of control | [14] 97 % of control

O=[N+]([O-])c1ccc2c(c1)c(-c1cccc(-c3ccccc3)c1)nc1ccccc12
inactive: [10] 95 % of control | [11] 88 % of control

Cc1cc(SC#N)ncn1
inactive: [3] 98 % of control | [4] 101 % of control

Nc1ncnc(N)c1NC(=O)c1cc(OCc2ccccc2)cc(OCc2ccccc2)c1
inactive: dose: 100.0 mg/kg/injection, schedule: Q04DX003 (ip), vehicle: DMSO 94 % of control | dose: 200.0 mg/kg/injection, schedule: Q04DX003 (ip), vehicle: DMSO 102 % of control | dose: 400.0 mg/kg/injection, schedule: Q04DX003 (ip), vehicle: DMSO 86 % of control
